Data reported in paper PMC3961306, “Comparison of the Cancer Gene Targeting and Biochemical Selectivities of All Targeted Kinase Inhibitors Approved for Clinical Use” (PLoS ONE, 2014).

Tests used:
Assay in all cases: Kinase profiling in a biochemical assay panel (mobility shift assays and ELISA), %-inhibition at 1 μM; selectivity entropy
[1] = target: T1, panel of more than 300 wild-type and mutant kinases (313 kinase panel) (Homo sapiens, UniProt O00418); conditions: kinase EEF2K; compound at 1 μM
T1 sequence (O00418 1-725): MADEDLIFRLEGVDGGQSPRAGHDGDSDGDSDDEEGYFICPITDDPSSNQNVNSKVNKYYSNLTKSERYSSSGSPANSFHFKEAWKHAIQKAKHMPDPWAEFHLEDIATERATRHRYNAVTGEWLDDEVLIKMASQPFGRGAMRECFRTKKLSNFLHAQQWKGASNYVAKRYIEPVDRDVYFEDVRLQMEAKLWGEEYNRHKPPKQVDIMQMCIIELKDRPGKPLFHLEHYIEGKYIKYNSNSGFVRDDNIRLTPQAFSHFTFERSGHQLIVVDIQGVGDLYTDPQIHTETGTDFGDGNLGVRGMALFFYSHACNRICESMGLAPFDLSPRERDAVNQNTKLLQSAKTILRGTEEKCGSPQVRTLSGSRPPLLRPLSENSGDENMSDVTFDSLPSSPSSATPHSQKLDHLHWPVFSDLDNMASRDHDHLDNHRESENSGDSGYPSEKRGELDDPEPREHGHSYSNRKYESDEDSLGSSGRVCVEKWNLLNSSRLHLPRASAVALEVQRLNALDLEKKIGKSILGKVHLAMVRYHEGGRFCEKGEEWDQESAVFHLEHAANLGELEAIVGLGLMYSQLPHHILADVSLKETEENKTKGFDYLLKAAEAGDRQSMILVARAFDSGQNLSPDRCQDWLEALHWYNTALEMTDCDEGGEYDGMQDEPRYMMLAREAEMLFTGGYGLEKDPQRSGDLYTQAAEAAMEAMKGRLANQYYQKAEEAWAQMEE

[2] = target: panel of more than 300 wild-type and mutant kinases (313 kinase panel) (Homo sapiens, UniProt P04049)
[3] = target: panel of more than 300 wild-type and mutant kinases (313 kinase panel) (Homo sapiens, UniProt P07333)
[4] = target: panel of more than 300 wild-type and mutant kinases (313 kinase panel) (Homo sapiens, UniProt P07949)
[5] = target: panel of more than 300 wild-type and mutant kinases (313 kinase panel) (Homo sapiens, UniProt P21802)
[6] = target: T2, panel of more than 300 wild-type and mutant kinases (313 kinase panel) (Homo sapiens, UniProt P43403)
T2 sequence (P43403 1-619): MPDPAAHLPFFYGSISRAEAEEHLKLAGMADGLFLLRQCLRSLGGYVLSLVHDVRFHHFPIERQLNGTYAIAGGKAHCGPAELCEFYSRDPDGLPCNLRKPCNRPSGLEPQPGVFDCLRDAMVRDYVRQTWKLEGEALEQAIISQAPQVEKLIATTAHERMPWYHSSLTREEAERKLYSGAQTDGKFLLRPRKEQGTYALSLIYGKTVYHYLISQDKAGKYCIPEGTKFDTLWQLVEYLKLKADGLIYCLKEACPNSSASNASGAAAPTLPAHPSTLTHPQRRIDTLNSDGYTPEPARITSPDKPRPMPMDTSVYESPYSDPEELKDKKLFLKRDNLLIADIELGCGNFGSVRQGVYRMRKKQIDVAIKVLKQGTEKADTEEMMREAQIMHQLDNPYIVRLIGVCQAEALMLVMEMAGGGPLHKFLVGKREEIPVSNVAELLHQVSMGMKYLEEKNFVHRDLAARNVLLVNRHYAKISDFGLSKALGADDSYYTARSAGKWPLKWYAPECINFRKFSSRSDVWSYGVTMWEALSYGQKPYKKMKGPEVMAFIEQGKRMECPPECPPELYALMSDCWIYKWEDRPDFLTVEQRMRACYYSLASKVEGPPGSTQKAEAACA

[7] = target: panel of more than 300 wild-type and mutant kinases (313 kinase panel) (Homo sapiens, UniProt P45984); conditions: kinase JNK2; compound at 1 μM
[8] = target: T3, panel of more than 300 wild-type and mutant kinases (313 kinase panel) (Homo sapiens, UniProt Q13043)
T3 sequence (Q13043 1-487): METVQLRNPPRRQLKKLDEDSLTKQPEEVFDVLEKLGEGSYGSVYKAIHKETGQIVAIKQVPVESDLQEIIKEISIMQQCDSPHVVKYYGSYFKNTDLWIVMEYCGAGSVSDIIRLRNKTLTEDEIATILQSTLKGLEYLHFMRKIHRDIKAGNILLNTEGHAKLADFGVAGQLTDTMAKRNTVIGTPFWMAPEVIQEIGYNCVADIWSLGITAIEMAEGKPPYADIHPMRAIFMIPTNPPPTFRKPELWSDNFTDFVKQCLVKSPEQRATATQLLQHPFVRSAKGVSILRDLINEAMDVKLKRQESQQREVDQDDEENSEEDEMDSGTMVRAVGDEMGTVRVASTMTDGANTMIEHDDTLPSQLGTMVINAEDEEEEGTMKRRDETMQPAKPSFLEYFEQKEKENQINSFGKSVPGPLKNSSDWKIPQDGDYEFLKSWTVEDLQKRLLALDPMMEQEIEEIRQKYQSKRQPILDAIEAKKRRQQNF

[9] = target: panel of more than 300 wild-type and mutant kinases (313 kinase panel) (Homo sapiens, UniProt Q9UM73, L1196M); conditions: kinase ALK(L1196M); 1 μM compound

SMILES | %-inhibition of EEF2K [1] [%] | %-inhibition of RAF1 ([2]; kinase RAF1, 1 μM) [%] | %-inhibition of FMS ([3]; kinase FMS, compound at 1 μM) [%] | %-inhibition of RET ([4]; kinase RET, 1 μM) [%] | %-inhibition of FGFR2 ([5]; kinase FGFR2, compound at 1 μM) [%] | %-inhibition of ZAP70 ([6]; kinase ZAP70, compound at 1 μM) [%] | %-inhibition of JNK2 [7] [%] | %-inhibition of MST1 ([8]; kinase MST1, 1 μM) [%] | %-inhibition, ALK(L1196M) [9] [%] | %-inhibition of RET ([4]; 1 µM) [%] | %-inhibition of FGFR2 ([5]; 1 µM) [%] | %-inhibition of MST1 ([8]; 1 µM) [%] | %-inhibition of RAF1 ([2]; 1 µM) [%] | %-inhibition of FMS ([3]; 1 µM) [%] | %-inhibition of ZAP70 ([6]; 1 µM) [%]
CO[C@H]1C[C@@H]2CC[C@@H](C)[C@@](O)(O2)C(=O)C(=O)N2CCCC[C@H]2C(=O)O[C@H]([C@H](C)C[C@@H]2CC[C@@H](OC(=O)C(C)(CO)CO)[C@H](OC)C2)CC(=O)[C@H](C)/C=C(\C)[C@@H](O)[C@@H](OC)C(=O)[C@H](C)C[C@H](C)/C=C/C=C/C=C/1C [temsirolimus] | -6 | -0.648 | -1.41 | -3 | -9 | -2.76 | -4.61 | -2.42 | -2.81 |  |  |  |  |  | 
CS(=O)(=O)CCNCc1ccc(-c2ccc3ncnc(Nc4ccc(OCc5cccc(F)c5)c(Cl)c4)c3c2)o1 [lapatinib] | -2.58 | 8 | -5.46 |  |  | 6 | -8 |  | -3 | -0.304 | 0.434 | -5.59 |  |  | 
Cc1cn(-c2cc(NC(=O)c3ccc(C)c(Nc4nccc(-c5cccnc5)n4)c3)cc(C(F)(F)F)c2)cn1 [nilotinib] | 6.34 |  |  |  |  |  | 9 |  | -42 | 31 | -67 | -21 | 58 | 52 | 2.52
